Source: paper PMC11926788, “Effect of SSR504734, a Selective Glycine Transporter Type 1 Inhibitor, on Seizure Thresholds, Neurotransmitter Levels, and Inflammatory Markers in Mice” (ACS Chemical Neuroscience, 2025)
Structures can show the parent of a compound that is named as a salt.

Legend:
[1] = system: TNFα, IL-6, IL-1β, TLR4, IL-10, IFN-γ, IL-18 in serum; test: Inflammatory markers in serum (ELISA); type: in vivo, mice; conditions: 14-day administration, 30 mg/kg i.p.
Method: (§1) ELISA kits were used to determine IL-1-β, IL-6, IL-10, TNF-α, and IFN-γ (EIAAB Science INC, Wuhan, Hubei, China, nos. E0563m, E0079m, E0056m, E0049m, E0133m, E0753m) and IL-18 (Biorbyt Ltd., Cambridge, United Kingdom, no. orb437211) in the liver homogenates and serum. All assays were performed according to the producer’s instructions. All samples were tested in triplicate.

[2] = system: inflammatory markers in liver homogenates; test: Inflammatory markers in liver (ELISA); type: in vivo, mice; conditions: 14-day administration, 30 mg/kg i.p.
Method: Samples of liver tissue were homogenized with a protease inhibitor solution (0.4 M NaCl, 0.05% Tween 20, 0.5% bovine serum albumin, 0.1 mM phenylmethylsulfonylfluoride, 0.1 mM benzethonium chloride, 10 mM EDTA, and 10 μg/mL aprotinin). Homogenates were centrifuged at 12,000 rpm at 4 °C, and supernatant fluids were collected and stored at −80 °C until analysis. The entire procedure was described by Zhao et al.[29]
as §1

rat GlyT1 = target: T1, rat GlyT1 (Rattus norvegicus, UniProt P28572); test: GlyT1 radioligand binding ([3H]glycine, rat brain cortex, Eurofins Panlabs)
T1 construct: tissue Eurofins Panlabs Discovery Services Taiwan, Ltd. (ran the assay); host or cells: Wistar rat brain cortex
T1 sequence (P28572 1-638): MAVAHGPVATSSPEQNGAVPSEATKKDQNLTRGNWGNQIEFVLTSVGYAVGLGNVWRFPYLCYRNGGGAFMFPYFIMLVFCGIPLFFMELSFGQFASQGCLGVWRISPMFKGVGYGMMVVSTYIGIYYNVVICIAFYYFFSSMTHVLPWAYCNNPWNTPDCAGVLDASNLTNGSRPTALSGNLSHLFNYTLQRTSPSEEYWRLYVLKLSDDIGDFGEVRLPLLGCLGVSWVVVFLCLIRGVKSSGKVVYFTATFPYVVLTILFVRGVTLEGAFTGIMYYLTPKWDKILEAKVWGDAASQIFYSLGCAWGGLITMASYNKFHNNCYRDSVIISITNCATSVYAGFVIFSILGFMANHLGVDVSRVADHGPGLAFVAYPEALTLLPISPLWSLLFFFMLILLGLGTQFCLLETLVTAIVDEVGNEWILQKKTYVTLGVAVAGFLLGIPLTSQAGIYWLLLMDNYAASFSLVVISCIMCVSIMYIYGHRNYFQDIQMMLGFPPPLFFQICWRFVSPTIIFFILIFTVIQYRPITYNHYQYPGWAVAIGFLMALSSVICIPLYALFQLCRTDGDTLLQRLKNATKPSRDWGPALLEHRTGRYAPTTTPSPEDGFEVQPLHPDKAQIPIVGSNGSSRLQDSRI

hepatoma HepG2 cells = test: Hepatotoxicity, HepG2 cell viability; type: cell-based
Method: A series of in vitro ADME-Tox tests were performed for SSR504734 in order to estimate its drugability. The ADME-Tox parameters including permeability, plasma protein binding, metabolic stability, neurotoxicity, and hepatotoxicity were carried out as described previously.[31],[32] The ability of SSR504734 to penetrate through the biological membrane by passive diffusion was estimated by the Gentest Precoated PAMPA Plate System (Corning, Tewksbury, MA) and expressed as the permeability coefficient (Pe). The protein binding analysis was performed by using the commercial TRANSIL^XL PPB test, which mimics in vitro physiological plasma conditions where human serum albumin (HAS) and alpha-1-acid glycoprotein AGP are present in a 24:1 ratio. The human metabolism of SSR504734 was studied using human liver microsomes (HLMs) provided by Sigma-Aldrich. The hepatotoxicity and neurotoxicity were estimated in cellular models with the use of hepatoma HepG2 and neuroblastoma SH-SY5Y cell lines to perform the preliminary safety tests. The cells were incubated with SSR504734 at the concentration range of 0.1–100 μM. 1 μM cytostatic drug doxorubicin (DX) was used as the reference.
Figure 8 Effect of cytostatic drug doxorubicin (DX) and SSR504734 on (A) hepatoma HepG2 and (B) neuroblastoma SH-SY5Y cell lines viability after 72 h of incubation at 37 °C, 5% CO2. Data are expressed as means ± SD. Statistical analysis: ****p < 0.0001 vs negative control −1% DMSO in growth media (one-way ANOVA, followed by Dunnett’s post hoc test).
Figure S8. The effect of cytostatic drug doxorubicin and SSR504734 on (A) hepatoma
HepG2 and (B) neuroblastoma SH-SY5Y cell line viability after 72 h of incubation at 37 °C,
5% CO2. The IC50 values were calculated by GraphPad Prism 8.0.
(1 picture or pasted object on this page, not shown here)

[3] = read-out: % inhibition of control specific binding

O=C(NC(c1ccccc1)C1CCCCN1)c1cccc(C(F)(F)F)c1Cl [SSR504734, 2-chloro-N-[(S)-phenyl[(2S)-piperidin-2-yl]methyl]-3-trifluoromethyl benzamide monohydrochloride] was tested, and the “serum concentration of IFN-γ” value [1] was “no statistically significant differences”, the “serum concentration of IL-1β” value [1] was “significant increase” and the “serum concentration of IL-6” value [1] was “significant increase”. The “serum concentration of IL-10” value [1] was “significant increase”, the “serum concentration of IL-18” value [1] was “no statistically significant differences” and the “serum concentration of TNFα” value [1] was “significant increase”. For the same compound, the “serum concentration of TRL4” value [1] was “significant increase”, the “level of inflammatory markers in liver samples” value [2] was “No statistically significant changes” and the “% inhibition of control specific binding” value (rat GlyT1; 0.1 μM, rat brain cortex) was “moderate interaction”. It also gave an inhibition at 0.1 µM (rat GlyT1; [3]) of 42%, an inhibition at 20 µM (rat GlyT1; [3]) of 52% and an inhibition at 100 µM (rat GlyT1; [3]) of 62%. For the same compound, the HepG2 cell viability (hepatoma HepG2 cells; 25 μM and higher concentrations, 72 h) was “significant decrease”, the IC50 (hepatoma HepG2 cells; Homo sapiens, HepG2, 72 h of incubation) was 14.8 µM and the “hepatotoxic properties (HepG2 viability)” value (hepatoma HepG2 cells; concentration range of 1–10 μM, 72 h) was “did not exhibit hepatotoxic properties”.
